Columns and labels:
Test in all cases: MIC, broth microdilution (CLSI), substance alone or ATB combined with compound at 4 or 8 μg/mL
[1] = tested on: PAE UFR90; format: cell-based, P. aeruginosa; details: PAE UFR90
Summary of the method: (§1)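 Broth microdilution; ca-MHB; 5·10^5 CFU/mL; 35° C, 16-20 h; compound alone or fixed 4/8 μg/mL with antibiotic series; endpoint = no visible growth.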

[2] = tested on: PAE 105250; format: cell-based, P. aeruginosa; details: PAE 105250
Summary of the method: as §1

[3] = tested on: ECL P99; format: cell-based, E. cloacae; details: ECL P99
Summary of the method: as §1

[4] = tested on: SAU 29213; format: cell-based, S. aureus; details: SAU 29213
Summary of the method: as §1

[5] = tested on: ECO 190317; format: cell-based, E. coli; details: ECO 190317
Summary of the method: as §1

[6] = tested on: ECO UFR39; format: cell-based, E. coli; details: ECO UFR39
Summary of the method: as §1

C[C@@H](O)[C@H]1C(=O)N2C(C(=O)O)=C(SCCN=CN)C[C@H]12 [IMI]
0.016 µg/mL: MIC ATB alone ([4]; antibiotic alone)
0.25 µg/mL: MIC ATB alone ([3]; antibiotic alone) | MIC ATB combined with Example 7 @8 μgml ([4]; with Example 7 at 8 μg/ml)
0.063 µg/mL: MIC ATB combined with Example 13 @8 μg/ml ([3]; with Example 13 at 8 μg/ml)
4 µg/mL: MIC ATB combined with Example 16 @4 μg/ml ([1]; with Example 16 at 4 μg/ml)
16 µg/mL: MIC ATB combined with Example 13 @8 μg/ml ([1]; with Example 13 at 8 μg/ml) | MIC ATB combined with Example 7 @8 μgml ([2]; with Example 7 at 8 μg/ml) | MIC ATB alone ([6]; antibiotic alone)
<=0.031 μg/mL: MIC ATB combined with Example 1 @8 μg/ml ([2]; with Example 1 @8 μg/ml) | MIC ATB combined with Example 1 @8 μg/ml ([2]; with Example 1 at 8 μg/ml) | MIC ATB combined with Example 1 @8 μg/ml ([4]; with Example 1 @8 μg/ml) | MIC ATB combined with Example 1 @8 μg/ml ([4]; with Example 1 at 8 μg/ml) | MIC ATB combined with Example 13 @8 μg/ml ([4]; with Example 13 at 8 μg/ml)
1 µg/mL: MIC ATB combined with Example 11 @8 μg/ml ([1]; with Example 11 at 8 μg/ml) | MIC ATB alone ([2]; antibiotic alone) | MIC ATB combined with Example 9 @4 μg/ml ([2]; with Example 9 @4 μg/ml) | MIC ATB combined with Example 9 @4 μg/ml ([2]; with Example 9 at 4 μg/ml) | MIC ATB combined with Example 11 @8 μg/ml ([2]; with Example 11 at 8 μg/ml) | MIC ATB combined with Example 7 @8 μgml ([3]; with Example 7 at 8 μg/ml)
0.125 µg/mL: MIC ATB alone ([5]; antibiotic alone)
<0.031 µg/mL: MIC ATB combined with Example 1 @8 μg/ml ([3]; with Example 1 @8 μg/ml) | MIC ATB combined with Example 1 @8 μg/ml ([3]; with Example 1 at 8 μg/ml) | MIC ATB combined with Example 9 @4 μg/ml ([3]; with Example 9 @4 μg/ml) | MIC ATB combined with Example 9 @4 μg/ml ([3]; with Example 9 at 4 μg/ml) | MIC ATB combined with Example 11 @8 μg/ml ([3]; with Example 11 at 8 μg/ml) | MIC ATB combined with Example 12 @8 μg/ml ([3]; with Example 12 at 8 μg/ml) | MIC ATB combined with Example 14 @8 μg/ml ([3]; with Example 14 at 8 μg/ml) | MIC ATB combined with Example 15 @4 μgml ([3]; with Example 15 at 4 μg/ml) | MIC ATB combined with Example 16 @4 μg/ml ([3]; with Example 16 at 4 μg/ml) | MIC ATB combined with Example 9 @4 μg/ml ([4]; with Example 9 @4 μg/ml) | MIC ATB combined with Example 9 @4 μg/ml ([4]; with Example 9 at 4 μg/ml) | MIC ATB combined with Example 11 @8 μg/ml ([4]; with Example 11 at 8 μg/ml) | MIC ATB combined with Example 12 @8 μg/ml ([4]; with Example 12 at 8 μg/ml) | MIC ATB combined with Example 14 @8 μg/ml ([4]; with Example 14 at 8 μg/ml) | MIC ATB combined with Example 15 @4 μgml ([4]; with Example 15 at 4 μg/ml) | MIC ATB combined with Example 16 @4 μg/ml ([4]; with Example 16 at 4 μg/ml) | MIC ATB combined with Example 1 @8 μg/ml ([5]; with Example 1 @8 μg/ml) | MIC ATB combined with Example 1 @8 μg/ml ([5]; with Example 1 at 8 μg/ml) | MIC ATB combined with Example 7 @8 μgml ([5]; with Example 7 at 8 μg/ml) | MIC ATB combined with Example 9 @4 μg/ml ([5]; with Example 9 @4 μg/ml) | MIC ATB combined with Example 9 @4 μg/ml ([5]; with Example 9 at 4 μg/ml) | MIC ATB combined with Example 11 @8 μg/ml ([5]; with Example 11 at 8 μg/ml) | MIC ATB combined with Example 12 @8 μg/ml ([5]; with Example 12 at 8 μg/ml) | MIC ATB combined with Example 13 @8 μg/ml ([5]; with Example 13 at 8 μg/ml) | MIC ATB combined with Example 14 @8 μg/ml ([5]; with Example 14 at 8 μg/ml) | MIC ATB combined with Example 15 @4 μgml ([5]; with Example 15 at 4 μg/ml) | MIC ATB combined with Example 16 @4 μg/ml ([5]; with Example 16 at 4 μg/ml) | MIC ATB combined with Example 1 @8 μg/ml ([6]; with Example 1 @8 μg/ml) | MIC ATB combined with Example 1 @8 μg/ml ([6]; with Example 1 at 8 μg/ml) | MIC ATB combined with Example 7 @8 μgml ([6]; with Example 7 at 8 μg/ml) | MIC ATB combined with Example 9 @4 μg/ml ([6]; with Example 9 @4 μg/ml) | MIC ATB combined with Example 9 @4 μg/ml ([6]; with Example 9 at 4 μg/ml) | MIC ATB combined with Example 11 @8 μg/ml ([6]; with Example 11 at 8 μg/ml) | MIC ATB combined with Example 12 @8 μg/ml ([6]; with Example 12 at 8 μg/ml) | MIC ATB combined with Example 13 @8 μg/ml ([6]; with Example 13 at 8 μg/ml) | MIC ATB combined with Example 14 @8 μg/ml ([6]; with Example 14 at 8 μg/ml) | MIC ATB combined with Example 15 @4 μgml ([6]; with Example 15 at 4 μg/ml) | MIC ATB combined with Example 16 @4 μg/ml ([6]; with Example 16 at 4 μg/ml)
2 µg/mL: MIC ATB combined with Example 12 @8 μg/ml ([1]; with Example 12 at 8 μg/ml) | MIC ATB combined with Example 14 @8 μg/ml ([1]; with Example 14 at 8 μg/ml) | MIC ATB combined with Example 15 @4 μgml ([1]; with Example 15 at 4 μg/ml) | MIC ATB combined with Example 12 @8 μg/ml ([2]; with Example 12 at 8 μg/ml) | MIC ATB combined with Example 14 @8 μg/ml ([2]; with Example 14 at 8 μg/ml) | MIC ATB combined with Example 15 @4 μgml ([2]; with Example 15 at 4 μg/ml) | MIC ATB combined with Example 16 @4 μg/ml ([2]; with Example 16 at 4 μg/ml)
8 µg/mL: MIC ATB combined with Example 13 @8 μg/ml ([2]; with Example 13 at 8 μg/ml)
